Measurements reported in patent US4550186A, “Binuclear copper (II) carboxylates formed from amine-carboxyboranes” (Duke University, priority 1983, dated 1985).
Where two headings read alike, the source gives them in different places.

Biological target: T1, orotidine monophosphate decarboxylase (Mus musculus, UniProt P13439)
T1 construct: OMP decarboxylase domain of UMP synthase
Assay: In vivo orotidine monophosphate decarboxylase activity
Protocol: CF1 male mice (~30 g) were implanted with 2×10^6 Ehrlich ascites tumor cells, intraperitoneally on Day 0. Compound I was suspended by homogenation in 0.05% polysorbate.80-water and administered intraperitoneally at 10 and 20 mg/kg for 9 days to determine its effectiveness for inhibition of tumor growth. Mice were sacrificed on Day 10, and the ascites fluid was collected from the peritoneal cavity. The volume and ascrit (packed cell volume) were determined for each animal and the percent inhibition of tumor growth was calculated. For the metabolic studies, mice were treated on Days 8 and 9 with 10 mg/kg of Compound I, intraperitoneally. […]
Carbamyl phosphate synthetase activity was determined using the reaction medium of Kalman et al [Am. […] Citrulline formed from ornithine was measured at 490 nm by the method of Archibald [J. Biol. Chem., 156, 121 (1944)]. […] The ^14 CO2 generated in 15 min was trapped in 1M KOH and counted. Thymidylate synthetase activity was determined using a post-mitochondrial supernatant (9000 g×10 min) and 5 μCi of 5-^3 H-deoxyuridine monophosphate (14 Ci/mmol) according to the method of Kampf et al [ J. Med. Chem., 19, 903 (1976)]. ^14 C-Formate incorporation into purines was determined by the method of Spassova et al [Biochem. Pharmacol., 25, 923 (1976)] using 0.5 μCi of ^14 C-formic acid (52.0 mCi/mmol). […] The Rf value for xanthine monophosphate was scraped and counted. […]

T1 sequence (P13439 whole entry, the tested form may be a part): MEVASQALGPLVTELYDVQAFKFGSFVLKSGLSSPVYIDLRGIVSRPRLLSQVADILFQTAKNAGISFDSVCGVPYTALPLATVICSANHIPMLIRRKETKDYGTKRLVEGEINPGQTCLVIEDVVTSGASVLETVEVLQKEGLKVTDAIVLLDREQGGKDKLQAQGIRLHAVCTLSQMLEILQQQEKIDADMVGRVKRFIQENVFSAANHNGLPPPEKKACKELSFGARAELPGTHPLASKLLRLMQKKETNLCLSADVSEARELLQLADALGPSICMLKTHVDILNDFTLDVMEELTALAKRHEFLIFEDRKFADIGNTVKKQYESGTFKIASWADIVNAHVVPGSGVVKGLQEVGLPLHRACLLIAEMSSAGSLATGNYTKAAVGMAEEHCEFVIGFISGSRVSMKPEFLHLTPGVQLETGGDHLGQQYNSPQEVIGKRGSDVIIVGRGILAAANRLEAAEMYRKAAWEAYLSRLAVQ

With “{Cu[(CH3)3 N.BH2 CO2 ]2.(CH3)3 N.BH2 COOH} [Compound I]” as the substance, how does the “Orotidine monophosphate decarboxylase activity” value read?
Its value is “not affected”.

What about the “Orotidine monophosphate decarboxylase activity” value (10 mg/kg/day I.P. on Days 8 and 9) of the same substance?
Its value is 106 ± 9 % Control.
